Read-outs that look alike come from different tables or passages of the source.
Legend:
Rac-1 = Rac-1 (Homo sapiens, UniProt P63000); test: Ras GTP binding domain inhibition assay (labeled-GTP competition, cell-free); design: made in house
How it was run: (§1)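 Immobilized His-tagged protein (Ni plate, 10-30 μg/mL, overnight 4° C); compound 20 μM or dilution series, 1% DMSO, 3 h RT, ±Sos 556-1049 last hour; Cy3/Cy5-GTP 100 nM, 45 min RT; 3× wash; bound fluorescence read.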

Rho-A = Rho-A (Homo sapiens, UniProt P61586); test: as above; design: made in house
How it was run: as §1

KRas wild type = KRas wild type (Homo sapiens, UniProt P01116); test: as above; design: made in house
How it was run: as §1

KRas G12C mutant = target: T1, KRas G12C mutant (Homo sapiens, UniProt P01116, G12C); test: as above
T1 construct: made in house
How it was run: as §1

KRas G12D mutant = target: T2, KRas G12D mutant (Homo sapiens, UniProt P01116, G12D); test: as above
T2 construct: made in house
How it was run: as §1

[1] = tested on: MIA-PaCa-2 pancreatic cancer cell line (KRAS G12C); test: Cell proliferation assay (CellTiter 96 Aqueous One); assay type: cell-based; conditions: Homo sapiens; for IC50: MIA PaCa-2, MIA PaCa-2; for inhibition at 10 µM: MIA PaCa-2, read-out: % inh cell proliferation (10 μM) in MIA PaCa-2
How it was run: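 Read-out is MTS-based viability (CellTiter 96 Aqueous One) after 2–4 days of compound exposure at 37 °C in 10% FBS with 0.3% DMSO.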

[2] = tested on: Akt phosphorylation in Panc-1 cells; test: Western AKT cell-based phosphorylation assay; design: species or system human; conditions: at 10 μM, values in brackets < > are activation %, not inhibition
Procedure: Human Tumor-Derived Pancreatic Cancer Cell Line Panc-1 was Purchased from
American Type Culture Collection and grown in complete DMEM-High Glucose supplemented with penicillin (100 U/mL), streptomycin (100 μg/mL), and 10% heat-inactivated FBS at 37° C. in a humidified incubator with 5% CO2.
Method: Cells were plated at 350000 cells/well density in a 12-well plate, allowed 3 hours to adhere to the plate, then starved in the appropriate medium in the presence of 0.5% FBS overnight. The small molecules to be tested were added to the cells in the final concentration of 10 μM in the presence of 0.3% DMSO for 6 hours incubation at 37° C. Next, cells were stimulated with 1.5 ng/ml EGF for 15 minutes then cells were lysed with lysis buffer containing 1% Triton X-100, EDTA, and Halt™ Protease & Phosphatase Inhibitor Cocktail (Thermo Scientific). Protein concentration was assessed by BCA protein assay (Thermo Scientific). Phosphorylation level of Akt was determined by western blot.
Western blot protocol: Equal amounts of protein (15-50 μg) were separated by SDS-PAGE and transferred to nitrocellulose membranes (Invitrogen by Thermo Fisher Scientific). The membrane was stained with Ponceau S Stain (Boston BioProducts) to verify uniform protein loading. Membranes were blocked with 10% milk and phosphorylation levels of Akt were assessed by incubating overnight at 4° C. with anti-phospho-Akt (Ser473) antibody (Cell Signaling) followed by HRP-conjugated secondary antibody (Jackson Immunoresearch, West Grove, Pa.). Bands were incubated in Amersham ECL Prime Western Blotting Detection Reagent (GE Healthcare) and visualized using the ChemiDoc MP imaging system (Bio-Rad).

[3] = with SOS, read-out: Rac-1 + SOS: % inh.
[4] = without SOS, read-out: Rac-1: % inh.
[5] = with SOS, read-out: Rho-A + SOS: % inh.
[6] = without SOS, read-out: Rho-A: % inh.
[7] = with SOS, read-out: KRas wild type + SOS: % inh.
[8] = without SOS, read-out: KRas wild type: % inh.
[9] = with SOS, read-out: KRas G12C mutant + SOS: % inh.
[10] = without SOS, read-out: KRas G12C mutant: % inh.
[11] = with SOS, read-out: KRas G12D mutant + SOS: % inh.
[12] = without SOS, read-out: KRas G12D mutant: % inh.

**Q.** How did the inhibition at 20 µM (Rac-1; [3]) turn out when `CO[C@H]1CC[C@@H](Nc2nc(C(N)=O)nc3sc(-c4ccn(C(C)C)n4)cc23)C1` (racemic) [Compound 17, Rac-6-(1-isopropyl-1H-pyrazol-3-yl)-4-(((1R,3S)-3-methoxycyclopentyl)amino)thieno[2,3-d]pyrimidine-2-carboxamide] was run?
**A.** 1 to 25%

**Q.** And the inhibition at 20 µM (Rac-1; [4])?
**A.** 0%

**Q.** And the inhibition at 20 µM (Rho-A; [5])?
**A.** 0%

**Q.** What about the inhibition at 20 µM (Rho-A; [6]) of the same molecule?
**A.** 26 to 50%

**Q.** And the inhibition at 20 µM (KRas wild type; [7])?
**A.** 1 to 25%

**Q.** What about the inhibition at 20 µM (KRas wild type; [8]) of the same molecule?
**A.** 1 to 25%

**Q.** What about the inhibition at 20 µM (KRas G12C mutant; [9]) of the same molecule?
**A.** 0%

**Q.** And the inhibition at 20 µM (KRas G12C mutant; [10])?
**A.** 0%

**Q.** What about the inhibition at 20 µM (KRas G12D mutant; [11]) of the same molecule?
**A.** 0%

**Q.** And the inhibition at 20 µM (KRas G12D mutant; [12])?
**A.** 0%

**Q.** And the IC50 [1]?
**A.** > 10 µM

**Q.** And the inhibition at 10 µM [1]?
**A.** 1 to 25%

**Q.** What about the “% inh of AKT phosphorylation in PANC-1” value [2] of the same molecule?
**A.** 0 (0% inhibition)

**Q.** How did the inhibition at 20 µM (Rac-1; [3]) turn out when `CO[C@H]1CC[C@@H](Nc2nc(C(=O)N3CCCC3)nc3sccc23)C1` (racemic) [Compound 25, Rac-(4-(((1R,3S)-3-Methoxycyclopentyl)amino)thieno[2,3-d]pyrimidin-2-yl)(pyrrolidin-1-yl)methanone] was run?
**A.** 0%

**Q.** What about the inhibition at 20 µM (Rac-1; [4]) of the same molecule?
**A.** 0%

**Q.** And the inhibition at 20 µM (Rho-A; [5])?
**A.** 0%

**Q.** And the inhibition at 20 µM (Rho-A; [6])?
**A.** 0%

**Q.** And the inhibition at 20 µM (KRas wild type; [7])?
**A.** 0%

**Q.** And the inhibition at 20 µM (KRas wild type; [8])?
**A.** 0%

**Q.** And the inhibition at 20 µM (KRas G12C mutant; [9])?
**A.** 0%

**Q.** What about the inhibition at 20 µM (KRas G12C mutant; [10]) of the same molecule?
**A.** 0%

**Q.** And the inhibition at 20 µM (KRas G12D mutant; [11])?
**A.** 0%

**Q.** What about the inhibition at 20 µM (KRas G12D mutant; [12]) of the same molecule?
**A.** 0%

**Q.** What about the IC50 [1] of the same molecule?
**A.** > 10 µM

**Q.** And the inhibition at 10 µM [1]?
**A.** 1 to 25%

**Q.** And the “% inh of AKT phosphorylation in PANC-1” value [2]?
**A.** 0 (0% inhibition)

**Q.** For `CO[C@@H]1CC[C@@H](Nc2nc(-c3nccn3C)nc3sc(-c4ccn(C(C)C)n4)c(C)c23)C1` (racemic) [Compound 33, rac-6-(1-Isopropyl-1H-pyrazol-3-yl)-N-((1R,3R)-3-methoxycyclopentyl)-5-methyl-2-(1-methyl-1H-imidazol-2-yl)thieno[2,3-d]pyrimidin-4-amine], which inhibition at 20 µM (Rac-1; [3]) is on record?
**A.** 51 to 75%

**Q.** What about the inhibition at 20 µM (Rac-1; [4]) of the same molecule?
**A.** 51 to 75%

**Q.** And the inhibition at 20 µM (Rho-A; [5])?
**A.** 76 to 100%

**Q.** And the inhibition at 20 µM (Rho-A; [6])?
**A.** 76 to 100%

**Q.** And the inhibition at 20 µM (KRas wild type; [7])?
**A.** 76 to 100%

**Q.** What about the inhibition at 20 µM (KRas wild type; [8]) of the same molecule?
**A.** 76 to 100%

**Q.** What about the inhibition at 20 µM (KRas G12C mutant; [9]) of the same molecule?
**A.** 76 to 100%

**Q.** What about the inhibition at 20 µM (KRas G12C mutant; [10]) of the same molecule?
**A.** 76 to 100%

**Q.** What about the inhibition at 20 µM (KRas G12D mutant; [11]) of the same molecule?
**A.** 76 to 100%

**Q.** And the inhibition at 20 µM (KRas G12D mutant; [12])?
**A.** 51 to 75%

**Q.** And the IC50 [1]?
**A.** 1 to 4.99 µM

**Q.** And the inhibition at 10 µM [1]?
**A.** 76 to 100%

**Q.** What about the “% inh of AKT phosphorylation in PANC-1” value [2] of the same molecule?
**A.** 0 (0% inhibition)

**Q.** How did the inhibition at 20 µM (Rac-1; [3]) turn out when `COC1CCN(c2nc(-c3nccn3C)nc3sc(-c4ccn(C(C)C)n4)c(C)c23)C1` (racemic) [Compound 34, rac-6-(1-Isopropyl-1H-pyrazol-3-yl)-4-(3-methoxypyrrolidin-1-yl)-5-methyl-2-(1-methyl-1H-imidazol-2-yl)thieno[2,3-d]pyrimidine] was run?
**A.** 76 to 100%

**Q.** And the inhibition at 20 µM (Rac-1; [4])?
**A.** 76 to 100%

**Q.** And the inhibition at 20 µM (Rho-A; [5])?
**A.** 76 to 100%

**Q.** And the inhibition at 20 µM (Rho-A; [6])?
**A.** 76 to 100%

**Q.** And the inhibition at 20 µM (KRas wild type; [7])?
**A.** 76 to 100%

**Q.** And the inhibition at 20 µM (KRas wild type; [8])?
**A.** 76 to 100%

**Q.** What about the inhibition at 20 µM (KRas G12C mutant; [9]) of the same molecule?
**A.** 76 to 100%

**Q.** And the inhibition at 20 µM (KRas G12C mutant; [10])?
**A.** 76 to 100%

**Q.** And the inhibition at 20 µM (KRas G12D mutant; [11])?
**A.** 76 to 100%

**Q.** And the inhibition at 20 µM (KRas G12D mutant; [12])?
**A.** 76 to 100%

**Q.** And the IC50 [1]?
**A.** 1 to 4.99 µM

**Q.** And the inhibition at 10 µM [1]?
**A.** 76 to 100%

**Q.** What about the “% inh of AKT phosphorylation in PANC-1” value [2] of the same molecule?
**A.** 0 (0% inhibition)

**Q.** For `Cc1c(-c2ccn(C(C)C)n2)sc2nc(-c3nccn3C)nc(NC3CCOC3)c12` (racemic) [Compound 37, rac-6-(1-Isopropyl-1H-pyrazol-3-yl)-5-methyl-2-(1-methyl-1H-imidazol-2-yl)-N-(tetrahydrofuran-3-yl)thieno[2,3-d]pyrimidin-4-amine], which inhibition at 20 µM (Rac-1; [3]) is on record?
**A.** 76 to 100%

**Q.** What about the inhibition at 20 µM (Rac-1; [4]) of the same molecule?
**A.** 76 to 100%

**Q.** What about the inhibition at 20 µM (Rho-A; [5]) of the same molecule?
**A.** 76 to 100%

**Q.** What about the inhibition at 20 µM (Rho-A; [6]) of the same molecule?
**A.** 76 to 100%

**Q.** And the inhibition at 20 µM (KRas wild type; [7])?
**A.** 76 to 100%

**Q.** And the inhibition at 20 µM (KRas wild type; [8])?
**A.** 76 to 100%

**Q.** What about the inhibition at 20 µM (KRas G12C mutant; [9]) of the same molecule?
**A.** 76 to 100%

**Q.** What about the inhibition at 20 µM (KRas G12C mutant; [10]) of the same molecule?
**A.** 76 to 100%

**Q.** What about the inhibition at 20 µM (KRas G12D mutant; [11]) of the same molecule?
**A.** 76 to 100%

**Q.** And the inhibition at 20 µM (KRas G12D mutant; [12])?
**A.** 76 to 100%

**Q.** And the IC50 [1]?
**A.** 5 to 10 µM

**Q.** What about the inhibition at 10 µM [1] of the same molecule?
**A.** 51 to 75%

**Q.** What about the “% inh of AKT phosphorylation in PANC-1” value [2] of the same molecule?
**A.** 0 (0% inhibition)

From patent publication US20230227466A1, “SUBSTITUTED THIENOPYRIMIDINES THAT INTERACT WITH THE RAS SUPERFAMILY FOR THE TREATMENT OF CANCERS, INFLAMMATORY DISEASES, RASOPATHIES, AND FIBROTIC DISEASE” (SHY Therapeutics, LLC, priority 2020, published 2023)
